The values that follow come from patent publication US11072617B2, “Bicyclic sulfones and sulfoxides and methods of use thereof” (Genentech, Inc., priority 2017, dated 2021).

pKi: −log10 of the molar value.

In this test the target is human RIP1 kinase domain (2-375) (Homo sapiens (Human), UniProt Q13546). The test is described as follows: RIP1 kinase inhibition biochemical assay (Transcreener ADP, fluorescence polarization). The note with it: Ki app from tight-binding Morrison equation; 50 nM enzyme, 50 uM ATP, 2 hours incubation. Summed up:
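Baculovirus-expressed human RIP1 kinase domain (2-375), 50 nM, incubated 2 h with compounds in pH 7.5 Hepes, 30 mM MgCl2, 50 uM ATP, 0.5% DMSO. ADP detected by Transcreener fluorescence-polarization tracer displacement; Ki^app from Morrison tight-binding fit.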

human RIP1 kinase domain (2-375), sequence (Q13546 2-375): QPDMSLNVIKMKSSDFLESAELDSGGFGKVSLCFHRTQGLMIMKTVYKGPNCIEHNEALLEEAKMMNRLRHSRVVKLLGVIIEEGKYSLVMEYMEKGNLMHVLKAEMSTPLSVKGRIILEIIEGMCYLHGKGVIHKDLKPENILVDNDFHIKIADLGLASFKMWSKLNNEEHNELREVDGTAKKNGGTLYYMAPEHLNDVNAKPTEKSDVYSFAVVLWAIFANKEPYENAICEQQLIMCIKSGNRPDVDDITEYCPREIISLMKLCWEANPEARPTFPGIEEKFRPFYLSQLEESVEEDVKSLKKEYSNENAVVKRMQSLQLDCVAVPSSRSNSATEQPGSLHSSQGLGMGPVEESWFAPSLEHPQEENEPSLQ

For the molecule `O=S(=O)(c1nc2n(n1)[C@H](c1ccccc1)C[C@@H]2F)[C@H]1C[C@H](F)C1` (single isomer, unassigned) [Example 164], the pKi was above 8.30.
Turning to `CC(C)(F)S(=O)(=O)c1nc2n(n1)[C@H](c1ccccc1)C[C@@H]2F` (single isomer, unassigned) [Example 165], the pKi is 7.60.
For the molecule `O=S(=O)(c1nc2n(n1)[C@H](c1ccccc1)C[C@@H]2F)[C@H]1C[C@@H](CO)C1` (single isomer, unassigned) [Example 168], the pKi is 6.28.
To `O=S(=O)(c1nc2n(n1)[C@H](c1ccccc1)C[C@@H]2F)[C@H]1C[C@@H](CF)C1` (single isomer, unassigned) [Example 169] belongs 7.28; to `O=S(=O)(c1nc2n(n1)[C@H](c1ccccc1)C[C@@H]2F)C1(F)CC1` (single isomer, unassigned) [Example 178], 8.22; to `[O-][S@@+](c1nc2n(n1)[C@H](c1cccc(F)c1)C[C@@H]2F)C(F)F` (single isomer, unassigned) [Example 179], 6.68.
`[O-][S@@+](c1nc2n(n1)[C@H](c1ccccc1)C[C@@H]2F)C(F)(F)F` (single isomer, unassigned) [Example 180] had a pKi of 6.52.
To `[O-][S@+](c1nc2n(n1)[C@H](c1ccccc1)C[C@@H]2F)C(F)(F)F` (single isomer, unassigned) [Example 181] belongs 8.40; to `[O-][S@+](c1nc2n(n1)[C@H](c1cccc(F)c1)C[C@@H]2F)C(F)F` (single isomer, unassigned) [Example 182], 8.22.
Take `[O-][S@@+](CC(F)(F)F)c1nc2n(n1)[C@H](c1ccccc1)C[C@@H]2F` (single isomer, unassigned) [Example 183]: the pKi is 8.40.
`[O-][S@+](CC1CC1)c1nc2n(n1)[C@H](c1ccccc1)C[C@@H]2F` (single isomer, unassigned) [Example 184] had a pKi of 6.89.
With `[O-][S@+](CC(F)(F)F)c1nc2n(n1)[C@H](c1ccccc1)C[C@@H]2F` (single isomer, unassigned) [Example 185] the figure was 7.72; with `[O-][S@@+](CC1CC1)c1nc2n(n1)[C@H](c1ccccc1)C[C@@H]2F` (single isomer, unassigned) [Example 186], 7.70; with `CC(C)[S@@+]([O-])c1nc2n(n1)[C@H](c1ccccc1)C[C@@H]2F` (single isomer, unassigned) [Example 187], 8.10.
In turn, `CC[S@@+]([O-])c1nc2n(n1)[C@H](c1ccccc1)C[C@@H]2F` (single isomer, unassigned) [Example 188] had a pKi of 6.29.
Molecule `CC(C)[S@+]([O-])c1nc2n(n1)[C@H](c1ccccc1)C[C@@H]2F` (single isomer, unassigned) [Example 189] had a pKi of 6.12.
`CC[S@+]([O-])c1nc2n(n1)[C@H](c1ccccc1)C[C@@H]2F` (single isomer, unassigned) [Example 190] had a pKi of 8.10.
As to `CC(C)(C)[S@@+]([O-])c1nc2n(n1)[C@H](c1ccccc1)C[C@@H]2F` (single isomer, unassigned) [Example 191], the pKi is 8.30.
To `N#Cc1cccc([C@@H]2C[C@H](F)c3nc(S(=O)(=O)C(F)F)nn32)c1` (single isomer, unassigned) [Example 192] belongs 6.46.
To `O=S(=O)(c1nc2n(n1)[C@H](c1cc(F)cc(F)c1)C[C@@H]2F)[C@H]1C[C@H](F)C1` (single isomer, unassigned) [Example 193] belongs 7.64.
`O=S(=O)(c1nc2n(n1)[C@H](c1cccc(F)c1)C[C@@H]2F)[C@H]1C[C@@H](O)C1` (single isomer, unassigned) [Example 195]: the pKi was 6.34.
`O=S(=O)(CCOC(F)F)c1nc2n(n1)[C@H](c1ccccc1)C[C@@H]2F` (single isomer, unassigned) [Example 198] showed a pKi of 7.17.
